Patent US10206394B2, “Herbicidal compounds” (Syngenta Participations AG, priority 2014, dated 2019)
Like-named read-outs stand apart in the source and are kept apart here.

How the values were obtained:
Experiment in all cases: Glasshouse assay for herbicidal activity (pre- and post-emergence), percentage phytotoxicity
Assay type in all cases: in vivo
[1] = test system: Alopecurus myosuroides (ALOMY); conditions: Alopecurus myosuroides
Outline: (§1)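 Visually rated damage, 0–100%. PRE spray 1 d after sowing, scored 20 DAA; POST spray ~12 d, scored 15 DAA. Glasshouse at 65% humidity, 16 h day.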

Avena fatua (AVEFA) = conditions: Avena fatua
Outline: as §1

[2] = test system: Echinochloa crus-galli (ECHCG); conditions: Echinochloa crus-galli
Outline: as §1

Lolium perenne (LOLPE) = conditions: Lolium perenne
Outline: as §1

[3] = post-emergence, 360 h, POST-emergence, rate 250 g/ha, visual score 15 DAA (100%=total damage, 0%=no damage), read-out: Post-emergence herbicidal activity (percentage phytotoxicity) ALOMY POST
[4] = pre-emergence, 480 h, PRE-emergence, rate 250 g/ha, visual score 20 DAA (100%=total damage, 0%=no damage), read-out: Pre-emergence herbicidal activity (percentage phytotoxicity) ALOMY PRE
[5] = post-emergence, 360 h, POST-emergence, rate 250 g/ha, visual score 15 DAA (100%=total damage, 0%=no damage), read-out: Post-emergence herbicidal activity (percentage phytotoxicity) AVEFA POST
[6] = pre-emergence, 480 h, PRE-emergence, rate 250 g/ha, visual score 20 DAA (100%=total damage, 0%=no damage), read-out: Pre-emergence herbicidal activity (percentage phytotoxicity) AVEFA PRE
[7] = post-emergence, 360 h, POST-emergence, rate 250 g/ha, visual score 15 DAA (100%=total damage, 0%=no damage), read-out: Post-emergence herbicidal activity (percentage phytotoxicity) ECHCG POST
[8] = pre-emergence, 480 h, PRE-emergence, rate 250 g/ha, visual score 20 DAA (100%=total damage, 0%=no damage), read-out: Pre-emergence herbicidal activity (percentage phytotoxicity) ECHCG PRE
[9] = post-emergence, 360 h, POST-emergence, rate 250 g/ha, visual score 15 DAA (100%=total damage, 0%=no damage), read-out: Post-emergence herbicidal activity (percentage phytotoxicity) LOLPE POST
[10] = pre-emergence, 480 h, PRE-emergence, rate 250 g/ha, visual score 20 DAA (100%=total damage, 0%=no damage), read-out: Pre-emergence herbicidal activity (percentage phytotoxicity) LOLPE PRE
[11] = post-emergence, 360 h, Rate 250 g/ha, post-emergence, assessed visually 15 DAA, 100%=total damage, 0%=no damage, read-out: Post-emergence herbicidal activity (percentage phytotoxicity) ALOMY POST
[12] = pre-emergence, 480 h, Rate 250 g/ha, pre-emergence, assessed visually 20 DAA, 100%=total damage, 0%=no damage, read-out: Pre-emergence herbicidal activity (percentage phytotoxicity) ALOMY PRE
[13] = post-emergence, 360 h, Rate 250 g/ha, post-emergence, assessed visually 15 DAA, 100%=total damage, 0%=no damage, read-out: Post-emergence herbicidal activity (percentage phytotoxicity) AVEFA POST
[14] = pre-emergence, 480 h, Rate 250 g/ha, pre-emergence, assessed visually 20 DAA, 100%=total damage, 0%=no damage, read-out: Pre-emergence herbicidal activity (percentage phytotoxicity) AVEFA PRE
[15] = post-emergence, 360 h, Rate 250 g/ha, post-emergence, assessed visually 15 DAA, 100%=total damage, 0%=no damage, read-out: Post-emergence herbicidal activity (percentage phytotoxicity) ECHCG POST
[16] = pre-emergence, 480 h, Rate 250 g/ha, pre-emergence, assessed visually 20 DAA, 100%=total damage, 0%=no damage, read-out: Pre-emergence herbicidal activity (percentage phytotoxicity) ECHCG PRE
[17] = post-emergence, 360 h, Rate 250 g/ha, post-emergence, assessed visually 15 DAA, 100%=total damage, 0%=no damage, read-out: Post-emergence herbicidal activity (percentage phytotoxicity) LOLPE POST
[18] = pre-emergence, 480 h, Rate 250 g/ha, pre-emergence, assessed visually 20 DAA, 100%=total damage, 0%=no damage, read-out: Pre-emergence herbicidal activity (percentage phytotoxicity) LOLPE PRE

Structure (SMILES) | pest or weed control at 250 g/ha [1, 3] | pest or weed control at 250 g/ha [1, 4] | pest or weed control at 250 g/ha (Avena fatua (AVEFA); [5]) | pest or weed control at 250 g/ha (Avena fatua (AVEFA); [6]) | pest or weed control at 250 g/ha [2, 7] | pest or weed control at 250 g/ha [2, 8] | pest or weed control at 250 g/ha (Lolium perenne (LOLPE); [9]) | pest or weed control at 250 g/ha (Lolium perenne (LOLPE); [10]) | pest or weed control at 250 g/ha [1, 11] | pest or weed control at 250 g/ha [1, 12] | pest or weed control at 250 g/ha (Avena fatua (AVEFA); [13]) | pest or weed control at 250 g/ha (Avena fatua (AVEFA); [14]) | pest or weed control at 250 g/ha [2, 15] | pest or weed control at 250 g/ha [2, 16] | pest or weed control at 250 g/ha (Lolium perenne (LOLPE); [17]) | pest or weed control at 250 g/ha (Lolium perenne (LOLPE); [18]) | further results
Cc1cc(OCC(F)(F)F)cc(C)c1C1C(=O)CC(CC(=O)N(C)C(C)(C)C)C1=O (stereo not drawn) [Compound B212] | 90% | 60% | 60% | 60% | 90% | 100% | 70% | 90% |  |  |  |  |  |  |  |  | 
C/C=C/c1cc(C)c(C2C(=O)CC(CC(=O)NCc3ccc(C#N)cc3)C2=O)c(C)c1 (stereo not drawn) [Compound B244] | 0% | 0% | 80% | 0% | 90% | 0% | 60% | 0% |  |  |  |  |  |  |  |  | 
C#CC(C)(C)NC(=O)CC1CC(=O)C(c2c(C)cc(-c3ncc(Cl)cc3F)cc2C)C1=O (stereo not drawn) [Compound B126] |  |  |  |  |  |  |  |  |  |  |  |  |  |  |  |  | pest or weed control at 250 g/ha ([1]; post-emergence, 360 h, 250 g/ha, post-emergence, 15 DAA, visual assessment (100%=total damage, 0%=no damage), read-out: Post-emergence herbicidal activity (percentage phytotoxicity) ALOMY POST): 100%; pest or weed control at 250 g/ha ([1]; pre-emergence, 480 h, 250 g/ha, pre-emergence, 20 DAA, visual assessment (100%=total damage, 0%=no damage), read-out: Pre-emergence herbicidal activity (percentage phytotoxicity) ALOMY PRE): 100%; pest or weed control at 250 g/ha (Avena fatua (AVEFA); post-emergence, 360 h, 250 g/ha, post-emergence, 15 DAA, visual assessment (100%=total damage, 0%=no damage), read-out: Post-emergence herbicidal activity (percentage phytotoxicity) AVEFA POST): 100%; pest or weed control at 250 g/ha (Avena fatua (AVEFA); pre-emergence, 480 h, 250 g/ha, pre-emergence, 20 DAA, visual assessment (100%=total damage, 0%=no damage), read-out: Pre-emergence herbicidal activity (percentage phytotoxicity) AVEFA PRE): 90%; pest or weed control at 250 g/ha ([2]; post-emergence, 360 h, 250 g/ha, post-emergence, 15 DAA, visual assessment (100%=total damage, 0%=no damage), read-out: Post-emergence herbicidal activity (percentage phytotoxicity) ECHCG POST): 100%; pest or weed control at 250 g/ha ([2]; pre-emergence, 480 h, 250 g/ha, pre-emergence, 20 DAA, visual assessment (100%=total damage, 0%=no damage), read-out: Pre-emergence herbicidal activity (percentage phytotoxicity) ECHCG PRE): 100%; pest or weed control at 250 g/ha (Lolium perenne (LOLPE); post-emergence, 360 h, 250 g/ha, post-emergence, 15 DAA, visual assessment (100%=total damage, 0%=no damage), read-out: Post-emergence herbicidal activity (percentage phytotoxicity) LOLPE POST): 100%; pest or weed control at 250 g/ha (Lolium perenne (LOLPE); pre-emergence, 480 h, 250 g/ha, pre-emergence, 20 DAA, visual assessment (100%=total damage, 0%=no damage), read-out: Pre-emergence herbicidal activity (percentage phytotoxicity) LOLPE PRE): 100%
Cc1cc(-c2ncc(Cl)cn2)cc(C)c1C1C(=O)CC(CC(=O)NC(C)(C)C)C1=O (stereo not drawn) [Compound A40] |  |  |  |  |  |  |  |  | 100% | 100% | 100% | 90% | 100% | 100% | 100% | 100% | 
CC#Cc1cc(C)c(C2C(=O)CC(CC(=O)NCC3CC3)C2=O)c(C)c1 (stereo not drawn) [Compound A63] |  |  |  |  |  |  |  |  | 100% | 100% | 100% | 90% | 100% | 100% | 90% | 100% | 
Cc1cc(-c2ccc(Cl)cn2)cc(C)c1C1C(=O)CC(CC(=O)NCc2cccc(F)c2)C1=O (stereo not drawn) [Compound B357] |  |  |  |  |  |  |  |  |  |  |  |  |  |  |  |  | pest or weed control at 250 g/ha ([1]; post-emergence, 360 h, Rate 250 g/ha, post-emergence, visual assessment 15 DAA, 100%=total damage, 0%=no damage, read-out: Post-emergence herbicidal activity (percentage phytotoxicity) ALOMY POST): 90%; pest or weed control at 250 g/ha ([1]; pre-emergence, 480 h, Rate 250 g/ha, pre-emergence, visual assessment 20 DAA, 100%=total damage, 0%=no damage, read-out: Pre-emergence herbicidal activity (percentage phytotoxicity) ALOMY PRE): 80%; pest or weed control at 250 g/ha (Avena fatua (AVEFA); post-emergence, 360 h, Rate 250 g/ha, post-emergence, visual assessment 15 DAA, 100%=total damage, 0%=no damage, read-out: Post-emergence herbicidal activity (percentage phytotoxicity) AVEFA POST): 100%; pest or weed control at 250 g/ha (Avena fatua (AVEFA); pre-emergence, 480 h, Rate 250 g/ha, pre-emergence, visual assessment 20 DAA, 100%=total damage, 0%=no damage, read-out: Pre-emergence herbicidal activity (percentage phytotoxicity) AVEFA PRE): 90%; pest or weed control at 250 g/ha ([2]; post-emergence, 360 h, Rate 250 g/ha, post-emergence, visual assessment 15 DAA, 100%=total damage, 0%=no damage, read-out: Post-emergence herbicidal activity (percentage phytotoxicity) ECHCG POST): 100%; pest or weed control at 250 g/ha ([2]; pre-emergence, 480 h, Rate 250 g/ha, pre-emergence, visual assessment 20 DAA, 100%=total damage, 0%=no damage, read-out: Pre-emergence herbicidal activity (percentage phytotoxicity) ECHCG PRE): 100%; pest or weed control at 250 g/ha (Lolium perenne (LOLPE); post-emergence, 360 h, Rate 250 g/ha, post-emergence, visual assessment 15 DAA, 100%=total damage, 0%=no damage, read-out: Post-emergence herbicidal activity (percentage phytotoxicity) LOLPE POST): 90%; pest or weed control at 250 g/ha (Lolium perenne (LOLPE); pre-emergence, 480 h, Rate 250 g/ha, pre-emergence, visual assessment 20 DAA, 100%=total damage, 0%=no damage, read-out: Pre-emergence herbicidal activity (percentage phytotoxicity) LOLPE PRE): 100%
